Test results: patent US20230257385A1, “SALT AND SOLID FORMS OF TABERNANTHALOG” (priority 2021, published 2023)

Key:
Type in all cases: physicochemical
[1] = Heat-up/cool down (HUCD) crystallization of the monofumarate salt (Experiment Reference 11); details: for XRPD (oven dried): form of product from HUCD crystallization of tabernanthalog fumarate Sample Reference 1 (Pattern #1), solvents per sample as in E1; for Observations (t = 0 @ T = 20° C.): input tabernanthalog fumarate Sample Reference 1 (Pattern #1), Solvent A/B: 11-A acetone/water, 11-B acetonitrile/water, 11-C butanol/water, 11-D tBME/methanol, 11-E DCM/methanol, 11-F ethanol/water, 11-G methyl acetate/water/methanol, 11-H 2-propanol/water, 11-1 methanol, 11-J MEK/water, 11-K 2-MeTHF/methanol, 11-L THF/water, 11-M toluene/methanol, 11-N water, 11-O dioxane/water, 11-P CPME/methan
Experimental: Separate portions of the tabernanthalog monofumarate salt (Pattern #1, Sample Reference 1, ca 75 mg, 1.0 wt.) were charged to separate vessels. The appropriate solvents (750 μl, 10.0 vol, refer to Table 106) were charged to the relevant vessels and subsequent charges of the appropriate co-solvent were made to accomplish dissolution at reflux. The solutions were cooled to 18 to 23° C. and allowed to stand undisturbed, until crystallization was judged complete. After this time the products were isolated by centrifugation, washed with recycled maturation solvent, dried under reduced pressure at 40° C. and analyzed by XRPD for evidence of alternative crystalline forms.

[2] = Targeted solubility of Tabernanthalog (native) in common solvents (Example 8, Experiment 1)
Experimental: The solutions were observed after cooling to determine if crystallization occurred on standing at room temperature.
To portions of tabernanthalog (native) (50 mg, 1 wt), were added 5 vol aliquots of the relevant solvent (Table 198). Observations were made at 20° C., 40° C. and reflux and the mixtures were cooled to 20° C. Contingent upon these findings, an additional 5 vol aliquot of the relevant solvent was added and the process was repeated until 20 vol of solvent was added in total.

[3] = DVS 0 to 90 to 0% RH (mass equilibrated); details: batch 8-A4

COc1ccc2c3c([nH]c2c1)CCN(C)CC3.O=C(O)/C=C/C(=O)O [Sample 11-B]
XRPD (oven dried) [1]: Pattern #6a | Observations (t = 0 @ T = 20° C.) [1]: cloudy

COc1ccc2c3c([nH]c2c1)CCN(C)CC3.O=C(O)/C=C/C(=O)O [Sample 11-C]
XRPD (oven dried) [1]: Pattern #6a | Observations (t = 0 @ T = 20° C.) [1]: suspension

COc1ccc2c3c([nH]c2c1)CCN(C)CC3.O=C(O)/C=C/C(=O)O [Sample 11-D]
XRPD (oven dried) [1]: Pattern #5 | Observations (t = 0 @ T = 20° C.) [1]: cloudy

COc1ccc2c3c([nH]c2c1)CCN(C)CC3.O=C(O)/C=C/C(=O)O [Sample 11-E]
XRPD (oven dried) [1]: Pattern #6b | Observations (t = 0 @ T = 20° C.) [1]: suspension

COc1ccc2c3c([nH]c2c1)CCN(C)CC3.O=C(O)/C=C/C(=O)O [Sample 11-F]
XRPD (oven dried) [1]: Pattern #6a | Observations (t = 0 @ T = 20° C.) [1]: suspension

COc1ccc2c3c([nH]c2c1)CCN(C)CC3.O=C(O)/C=C/C(=O)O [Sample 11-G]
XRPD (oven dried) [1]: Pattern #1 | Observations (t = 0 @ T = 20° C.) [1]: suspension

COc1ccc2c3c([nH]c2c1)CCN(C)CC3.O=C(O)/C=C/C(=O)O [Sample 11-H]
XRPD (oven dried) [1]: Pattern #6a | Observations (t = 0 @ T = 20° C.) [1]: cloudy

COc1ccc2c3c([nH]c2c1)CCN(C)CC3.O=C(O)/C=C/C(=O)O [Sample 11-J]
XRPD (oven dried) [1]: Pattern #6a | Observations (t = 0 @ T = 20° C.) [1]: suspension

COc1ccc2c3c([nH]c2c1)CCN(C)CC3 [Tabernanthalog (native), 8-Methoxy-3-methyl-2,4,5,6-tetrahydro-1H-azepino[4,5-b]indole]
Solid on cooling ([2]; 2-Methyl THF, 5 vol): Yes | Solution at reflux ([2]; 2-Methyl THF, 5 vol): ✓ | Solid on cooling ([2]; 2-Propanol, 5 vol): Yes | Solution at reflux ([2]; 2-Propanol, 5 vol): ✓ | solubility in common solvents at 20° C. ([2]; 19 common solvents): freely soluble in most common solvents investigated at 20° C., apart from tBME, heptane and water | solubility in common solvents at reflux ([2]; 19 common solvents, various volumes): soluble in 16 solvents at reflux | Solid on cooling ([2]; Acetone, 5 vol): Yes | Solution at reflux ([2]; Acetone, 5 vol): ✓ | Solid on cooling ([2]; Acetonitrile, 10 vol): Yes | Solution at reflux ([2]; Acetonitrile, 10 vol): ✓ | Solid on cooling ([2]; Chlorobenzene, 5 vol): Yes | Solution at reflux ([2]; Chlorobenzene, 5 vol): ✓ | Solid on cooling ([2]; Dichloromethane, 5 vol): Yes | Solution at reflux ([2]; Dichloromethane, 5 vol): ✓ | Solid on cooling ([2]; Ethanol, 5 vol): Yes | Solution at reflux ([2]; Ethanol, 5 vol): ✓ | Solid on cooling ([2]; Ethyl acetate, 10 vol): Yes | Solution at reflux ([2]; Ethyl acetate, 10 vol): ✓ | Solid on cooling ([2]; Ethyl formate, 10 vol): Yes | Solution at reflux ([2]; Ethyl formate, 10 vol): ✓ | Solid on cooling ([2]; Isopropyl acetate, 15 vol): Yes | Solution at reflux ([2]; Isopropyl acetate, 15 vol): ✓ | Solid on cooling ([2]; Methanol, 5 vol): Yes | Solution at reflux ([2]; Methanol, 5 vol): ✓ | Solid on cooling ([2]; Methyl acetate, 10 vol): Yes | Solution at reflux ([2]; Methyl acetate, 10 vol): ✓ | Solid on cooling ([2]; Methylethyl ketone, 5 vol): Yes | Solution at reflux ([2]; Methylethyl ketone, 5 vol): ✓ | Solid on cooling ([2]; Nitromethane, 5 vol): Yes | Solution at reflux ([2]; Nitromethane, 5 vol): ✓ | Solid on cooling ([2]; Tetrahydrofuran, 5 vol): Yes | Solution at reflux ([2]; Tetrahydrofuran, 5 vol): ✓ | Solid on cooling ([2]; Toluene, 15 vol): Yes | Solution at reflux ([2]; Toluene, 15 vol): ✓

COc1ccc2c3c([nH]c2c1)CCN(C)CC3 [fumarate]
DVS 0 to 90 to 0% RH (dm/dt <0.002%) ([3]; desorption, 5.0% RH): 0.1179% | DVS 0 to 90 to 0% RH (dm/dt <0.002%) ([3]; desorption, 10.0% RH): 0.1551% | DVS 0 to 90 to 0% RH (dm/dt <0.002%) ([3]; desorption, 15.0% RH): 0.1857% | DVS 0 to 90 to 0% RH (dm/dt <0.002%) ([3]; desorption, 20.0% RH): 0.2126% | DVS 0 to 90 to 0% RH (dm/dt <0.002%) ([3]; desorption, 25.0% RH): 0.2387% | DVS 0 to 90 to 0% RH (dm/dt <0.002%) ([3]; desorption, 30.0% RH): 0.2656% | DVS 0 to 90 to 0% RH (dm/dt <0.002%) ([3]; desorption, 40.0% RH): 0.3210% | DVS 0 to 90 to 0% RH (dm/dt <0.002%) ([3]; desorption, 50.0% RH): 0.3797% | DVS 0 to 90 to 0% RH (dm/dt <0.002%) ([3]; desorption, 60.0% RH): 0.4515% | DVS 0 to 90 to 0% RH (dm/dt <0.002%) ([3]; desorption, 70.0% RH): 0.5442% | DVS 0 to 90 to 0% RH (dm/dt <0.002%) ([3]; desorption, 80.0% RH): 0.6827% | DVS 0 to 90 to 0% RH (dm/dt <0.002%) ([3]; desorption, 90.0% RH): 0.9766% | DVS 0 to 90 to 0% RH (dm/dt <0.002%) ([3]; sorption, 0.0% RH): DVS 0 to 90 to 0% RH (dm/dt <0.002%): 0.0 (0.0004%), 5.0 | DVS 0 to 90 to 0% RH (dm/dt <0.002%) ([3]; sorption, 5.0% RH): 0.0627% | DVS 0 to 90 to 0% RH (dm/dt <0.002%) ([3]; sorption, 10.0% RH): 0.0957% | DVS 0 to 90 to 0% RH (dm/dt <0.002%) ([3]; sorption, 15.0% RH): 0.1397% | DVS 0 to 90 to 0% RH (dm/dt <0.002%) ([3]; sorption, 20.0% RH): 0.1778% | DVS 0 to 90 to 0% RH (dm/dt <0.002%) ([3]; sorption, 25.0% RH): 0.2093% | DVS 0 to 90 to 0% RH (dm/dt <0.002%) ([3]; sorption, 30.0% RH): 0.2401% | DVS 0 to 90 to 0% RH (dm/dt <0.002%) ([3]; sorption, 40.0% RH): 0.3145% | DVS 0 to 90 to 0% RH (dm/dt <0.002%) ([3]; sorption, 50.0% RH): 0.4051% | DVS 0 to 90 to 0% RH (dm/dt <0.002%) ([3]; sorption, 70.0% RH): 0.5451% | DVS 0 to 90 to 0% RH (dm/dt <0.002%) ([3]; sorption, 80.0% RH): 0.6660% | DVS 0 to 90 to 0% RH (dm/dt <0.002%) ([3]; sorption, 90.0% RH): 0.9766%
